Holding throughout (assay): inhibition of tumour cell growth, NCI panel, 48 h
Assay [1] has as its system HL-60(TB) leukemia.
The test system of assay [2] is UACC-62 melanoma.
The test system of assay [3] is OVCAR-4 ovarian.
Assay [4] has as its system HS 578T breast.
For assay [5], the system named is PC-3 prostate.
In assay [6] the test system is NCI-H226 lung.
Assay [7] concerns A549 NSCLC.
In assay [8] the test system is A498 renal.
The test system of assay [9] is IGROV1 ovarian.
In assay [10] the test system is NCI-H460 lung.
Assay [11] deals with 786-0 renal.
Assay [12] has as its system SK-MEL-28 melanoma.
Assay [13] deals with UO-31 renal.

The source of these data is PubChem BioAssay (NCI).

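1) Cells in 96-well plates. 2) Compound, 48 h, 5 concentrations. 3) Linear interpolation between surrounding doses. 4) Unreached endpoint = highest concentration. The concentration for full growth arrest is given as TGI.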 A value given as a limit tells only on which side of the number the result lay.

Turning to `CC1=C(C)SC(=C2Sc3c(n(C)c(=O)[nH]c3=O)S2)S1`, the TGI in assay [1], in assay [2], in assay [3], in [4], in assay [5] and in [6] was over 100 µM each time. The TGI in assay [7], in assay [8], in assay [9], in assay [10], in [11] and in assay [12] was over 100 µM in each case. In addition, the TGI in assay [13] is over 100 µM.
For the molecule `CCOC(=O)Cc1ccc(Nc2nc3cc(C(F)(F)F)ccc3nc2C(=O)OCC)cc1`, the TGI in assay [1] is over 100 µM; in assay [2], over 100 µM; in assay [3], over 100 µM; in [4] it was 85.1 µM; in assay [5], over 100 µM; in assay [6], 91.6 µM. In addition, the TGI in assay [7], in [8], in assay [9], in [10], in assay [11] and in assay [12] was over 100 µM throughout. In assay [13], the TGI is over 100 µM.
On to `O=C(NNC(=S)Nc1ccccc1)C12CC3CC(CC(C3)C1)C2`, for which the TGI in assay [1] is 37.7 µM; in [2] it was over 100 µM; in assay [3] it was over 100 µM; in [4], over 100 µM; in assay [5], over 100 µM; in assay [6], over 86.6 µM. Further, the TGI in [7] was over 100 µM; in [8] it was over 91.4 µM; in [9], over 100 µM; in assay [10], over 100 µM; in [11], over 100 µM; in [12], over 100 µM. This molecule yielded a TGI in [13] of over 100 µM.
In the case of `Cc1cc(S(=O)(=O)Nc2nc(N)n(-c3cnc4ccccc4n3)n2)c(S)cc1Cl`, the TGI in assay [1], in assay [2], in assay [3], in assay [4], in assay [5] and in assay [6] was over 100 µM in each case. For the same molecule, the TGI in assay [7], in assay [8], in assay [9], in assay [10], in assay [11] and in assay [12] was over 100 µM each time. Also, the TGI in [13] was over 100 µM.
Take `O=C1c2ccccc2C(=O)c2c(OCC3CO3)ccc(OCC3CO3)c21` (configuration not stated): the TGI in assay [1] amounted to 2.18 µM; in assay [2], 7.95 µM; in assay [3] it was 30.9 µM; in assay [4] it was 36.8 µM; in [5], 12 µM; in [6] it was 35.9 µM. Besides, the TGI is 22.2 µM in assay [7]; over 47.5 µM in assay [8]; 10.8 µM in [9]; 8.86 µM in assay [10]; 6.48 µM in assay [11]; 12 µM in assay [12]. In assay [13], this molecule yielded a TGI of 10.4 µM.
In the case of `CC(=O)OCc1nc(C#N)c(N)o1`, the TGI in [1], in assay [2], in assay [3], in assay [4], in assay [5] and in assay [6] was over 100 µM each time. The TGI in assay [8], in [9], in assay [10], in [11], in assay [12] and in assay [13] was over 100 µM each time.
For `O=S(=O)(O)c1cc(S(=O)(=O)O)c2c(N=Nc3cccc4ccccc34)c(O)ccc2c1`, the TGI in assay [1], in assay [2], in [3], in assay [4], in assay [5] and in assay [6] was over 100 µM in each case. The TGI in assay [7], in [8], in [9], in assay [10], in [11] and in assay [12] was over 100 µM each time. Also, in assay [13], the TGI was over 100 µM.
Consider `CC1CC(N)=Nc2ccccc2N1Cc1ccccc1` (configuration not stated), for which the TGI in assay [1] stood at 19.5 µM; in assay [2], 27.2 µM; in [3], 34.5 µM; in assay [4], 23.8 µM; in assay [5], 28.2 µM; in assay [6], 30.9 µM. Besides, the TGI in assay [7] is 32.7 µM; in [8], 23.3 µM; in assay [9], 19.9 µM; in assay [10], 26.8 µM; in assay [11], over 100 µM; in assay [12], 23.8 µM. In assay [13], this molecule returned a TGI of 42.3 µM.
Consider `CC1(C)C(O)c2ccccc2OC1N1CCN(C2Oc3ccccc3C(O)C2(C)C)CC1` (configuration not stated), for which the TGI in assay [1], in assay [2], in assay [3], in assay [4], in assay [5] and in assay [6] was over 100 µM in each case. Further, the TGI in [7], in assay [8], in assay [9], in assay [10], in [11] and in assay [12] was over 100 µM throughout. This molecule yielded a TGI in [13] of over 100 µM.
In the case of `CCCCCCCCCCCCCCCCOP(=O)(O)OP(=O)(O)OCC1OC(n2ccc(N)nc2=O)CC1O` (configuration not stated), the TGI in [1], in assay [2], in assay [3], in [4], in [5] and in assay [6] was over 100 µM throughout. For the same molecule, the TGI in assay [7], in assay [8], in assay [9], in assay [10], in assay [11] and in assay [12] was over 100 µM each time. For the same molecule, the TGI in assay [13] was over 100 µM.
As to `CC(=O)N1NC(c2ccccc2)=CC(=O)/C1=C/C(=O)c1ccccc1`, the TGI was 76.3 µM in [1]; over 100 µM in [2]; over 100 µM in [3]; over 100 µM in assay [4]; over 100 µM in [5]; over 100 µM in assay [6]. For the same molecule, the TGI in assay [7], in assay [8], in assay [9], in [10], in assay [11] and in [12] was over 100 µM throughout. In assay [13], this molecule displayed a TGI of over 100 µM.
